Assays:
[1] = Photothermal efficiency (solution temperature under laser irradiation); type: physicochemical; details: laser 808 nm, 1 W; followed by temperature decrease due to photodegradation
From the text: Such an increase of photothermal efficiency of the ICG-Fe NPs is thought to be due to fluorescence of ICG, which competitively acts on the photothermal reaction and is present within the nanoparticles in a fluorescence-quenched state.

nude mice = experiment: Toxicity in animal models (blood liver levels, liver/kidney tissue staining); type: in vivo; details: 200 μL intravenously, male nude mice, two days later
From the text: Two days later, blood and liver/kidney tissues were collected and evaluated for toxicity.

[2] = test system: HT-29 cells (human colon cancer) solid tumors; experiment: Cancer cell accumulation in cancer disease model via fluorescence imaging; type: in vivo; details: HT-29 tumor on left thigh of nude mice, 200 μL intravenously
Description: The model with a cancer disease was prepared by subcutaneous injection of 1×10^7 HT-29 cells (human colon cancer, Korean Cell Line Bank) on the left thigh of 5-week-old male nude mice (Orientbio Inc., Korea). After 2 weeks of cancer cell transplantation, solid tumors were confirmed to be formed, and then subsequent experiments were performed.

## CC1(C)C(/C=C/C=C/C=C/C=C2\N(CCCCS(=O)(=O)O)c3ccc4ccccc4c3C2(C)C)=[N+](CCCCS(=O)(=O)[O-])c2ccc3ccccc3c21 [ICG, indocyanine green]
[1]
  temperature increase at the beginning of laser irradiation: about 45 °C
Nude mice
  AST/ALT values (blood liver levels): normal levels
  immunostained liver/kidney tissues: no abnormalities were found
[2]
  fluorescence at the cancer site (accumulation): did not show fluorescence at the cancer site

— US11291726B2 (KOREA INSTITUTE OF SCIENCE AND TECHNOLOGY, priority 2018, dated 2022)
